In ChEMBL document CHEMBL4680148, “Semisynthesis and biological evaluation of amidochelocardin derivatives as broad-spectrum antibiotics” (Eur J Med Chem, 2020):
Converted amounts (≈) assume the structure as drawn.

Assays:
[1] = tested on: Enterococcus faecium; test: Antibacterial activity against Enterococcus faecium DSM-20477 assessed as minimum inhibitory concentration required for inhibition of bacterial growth measured after 18 hrs by microdilution method; format: functional
[2] = tested on: Staphylococcus aureus; test: Antibacterial activity against Staphylococcus aureus Newman assessed as minimum inhibitory concentration required for inhibition of bacterial growth measured after 18 hrs by microdilution method; format: functional
[3] = tested on: Pseudomonas aeruginosa; test: Antibacterial activity against Pseudomonas aeruginosa PA14 delta mexAB assessed as minimum inhibitory concentration required for inhibition of bacterial growth measured after 18 hrs by microdilution method; format: functional
[4] = tested on: Escherichia coli; test: Antibacterial activity against Escherichia coli DSM-1116 assessed as minimum inhibitory concentration required for inhibition of bacterial growth measured after 18 hrs by microdilution method; format: functional
[5] = tested on: Escherichia coli; test: Antibacterial activity against Escherichia coli DSM-1116 assessed as minimum inhibitory concentration required for inhibition of bacterial growth in presence of outer membrane permeabilizer PMBN measured after 18 hrs by microdilution method; format: functional
[6] = tested on: Staphylococcus aureus; test: Antibacterial activity against Staphylococcus aureus DSM-11822 assessed as minimum inhibitory concentration required for inhibition of bacterial growth measured after 18 hrs by microdilution method; format: functional
[7] = tested on: Pseudomonas aeruginosa; test: Antibacterial activity against Pseudomonas aeruginosa PA14 assessed as minimum inhibitory concentration required for inhibition of bacterial growth measured after 18 hrs by microdilution method; format: functional
[8] = tested on: Klebsiella pneumoniae; test: Antibacterial activity against Klebsiella pneumoniae DSM-30104 assessed as minimum inhibitory concentration required for inhibition of bacterial growth measured after 18 hrs by microdilution method; format: functional
[9] = tested on: Pseudomonas aeruginosa; test: Antibacterial activity against Pseudomonas aeruginosa PA14 delta mexAB assessed as minimum inhibitory concentration required for inhibition of bacterial growth in presence of outer membrane permeabilizer PMBN measured after 18 hrs by microdilution method; format: functional
[10] = Stability of the compound in Escherichia coli growth medium assessed as intact compound by LC-MS analysis; format: physicochemical
[11] = Stability of the compound in Escherichia coli assessed as intact compound by LC-MS analysis; format: ADME
[12] = tested on: Pseudomonas aeruginosa; test: Antibacterial activity against Pseudomonas aeruginosa DSM-1128 assessed as minimum inhibitory concentration required for inhibition of bacterial growth measured after 18 hrs by microdilution method; format: functional
[13] = tested on: Klebsiella pneumoniae; test: Antibacterial activity against Klebsiella pneumoniae DSM-30104 assessed as minimum inhibitory concentration required for inhibition of bacterial growth in presence of outer membrane permeabilizer PMBN measured after 18 hrs by microdilution method; format: functional
[14] = tested on: Escherichia coli; test: Antibacterial activity against Escherichia coli assessed as minimum inhibitory concentration required for inhibition of bacterial growth measured after 18 hrs by microdilution method; format: functional
[15] = tested on: Escherichia coli; test: Antibacterial activity against Escherichia coli assessed as minimum inhibitory concentration required for inhibition of bacterial growth in presence of outer membrane permeabilizer PMBN measured after 18 hrs by microdilution method; format: functional
[16] = tested on: Staphylococcus aureus; test: Antibacterial activity against Staphylococcus aureus DSM-346 assessed as minimum inhibitory concentration required for inhibition of bacterial growth measured after 18 hrs by microdilution method; format: functional

Row | Compound | MIC [1] | MIC [2] | MIC [3] | MIC [6] | MIC [7] | MIC [8] | other results
1 | C=CC(=O)N[C@H]1C(O)=C(C(N)=O)C(=O)[C@@]2(O)C(=O)c3c(c(C)c4ccc(C)c(O)c4c3O)C[C@@H]12 | 8 µg/mL (≈ 17.2 µM) | 4 µg/mL (≈ 8.58 µM) | > 64 µg/mL |  |  |  | MIC [4]: 32 µg/mL (≈ 68.6 µM); MIC [5]: 2 µg/mL
2 | Cc1cc([N+](=O)[O-])c2c(C)c3c(c(O)c2c1O)C(=O)[C@]1(O)C(=O)C(C(N)=O)=C(O)[C@H](N)[C@@H]1C3 | > 64 µg/mL |  |  | > 64 µg/mL | > 64 µg/mL | > 64 µg/mL | 
3 | Cc1ccc2c(C)c3c(c(O)c2c1OC(=O)c1ccc(Br)cc1)C(=O)[C@]1(O)C(=O)C(C(N)=O)=C(O)[C@H](N)[C@@H]1C3 | 4 µg/mL (≈ 6.72 µM) | 4 µg/mL (≈ 6.72 µM) |  |  |  |  | MIC [4]: > 64 µg/mL; MIC [5]: 64 µg/mL; MIC [9]: > 64 µg/mL; Stabilty [10]: Stable; Stabilty [11]: Stable
4 | CC1=CC(=O)c2c(C)c3c(c(O)c2C1=O)C(=O)[C@]1(O)C(=O)C(C(N)=O)=C(O)[C@H](N)[C@@H]1C3 |  | 32 µg/mL (≈ 75.1 µM) |  |  |  | > 64 µg/mL | MIC [12]: > 64 µg/mL; MIC [13]: 64 µg/mL
5 | COc1ccc(C(=O)N[C@H]2C(O)=C(C(N)=O)C(=O)[C@@]3(O)C(=O)c4c(c(C)c5ccc(C)c(O)c5c4O)C[C@@H]23)cc1 |  |  | 64 µg/mL (≈ 117 µM) | 4 µg/mL (≈ 7.32 µM) | > 64 µg/mL | > 64 µg/mL | 
6 | Cc1cc(F)c2c(C)c3c(c(O)c2c1O)C(=O)[C@]1(O)C(=O)C(C(N)=O)=C(O)[C@H](N)[C@@H]1C3 |  |  | 4 µg/mL (≈ 9.29 µM) | 4 µg/mL (≈ 9.29 µM) | 8 µg/mL (≈ 18.6 µM) | 8 µg/mL (≈ 18.6 µM) | 
7 | Cc1ccc2c(C)c3c(c(O)c2c1O)C(=O)[C@]1(O)C(=O)C(C(N)=O)=C(O)[C@H](NS(C)(=O)=O)[C@@H]1C3 | 32 µg/mL (≈ 65.2 µM) |  |  | > 64 µg/mL | > 64 µg/mL | > 64 µg/mL | 
8 | Cc1ccc2c(C)c3c(c(O)c2c1O)C(=O)[C@]1(O)C(=O)C(C(N)=O)=C(O)[C@H](N2C(=O)c4ccccc4C2=O)[C@@H]1C3 |  |  | > 64 µg/mL | 0.125 µg/mL (≈ 0.23 µM) | > 64 µg/mL | > 64 µg/mL | MIC [14]: > 64 µg/mL; MIC [15]: 0.5 µg/mL
9 | Cc1ccc2c(C)c3c(c(O)c2c1O)C(=O)[C@]1(O)C(=O)C(C(N)=O)=C(O)[C@H](N)[C@@H]1C3.O=C([O-])CC(O)(CC(=O)[O-])C(=O)[O-].[Na+].[Na+].[Na+] | 4 µg/mL |  | 0.5 µg/mL | 8 µg/mL | 16 µg/mL | 2 µg/mL | MIC [4]: 0.5 µg/mL; Stabilty [10]: Unstable; Stabilty [11]: Unstable
10 | Cc1cc(Br)c2c(C)c3c(c(O)c2c1O)C(=O)[C@]1(O)C(=O)C(C(N)=O)=C(O)[C@H](N)[C@@H]1C3 |  | 8 µg/mL (≈ 16.3 µM) |  |  |  | 8 µg/mL (≈ 16.3 µM) | MIC [12]: 32 µg/mL (≈ 65.1 µM); MIC [13]: 4 µg/mL
11 | Cc1ccc2c(C)c3c(c(O)c2c1O)C(=O)[C@]1(O)C(=O)C(C(N)=O)=C(O)[C@H](N(C)C)[C@@H]1C3 | > 64 µg/mL |  |  |  | > 64 µg/mL | > 64 µg/mL | MIC [16]: > 64 µg/mL
12 | CN[C@H]1C(O)=C(C(N)=O)C(=O)[C@@]2(O)C(=O)c3c(c(C)c4ccc(C)c(O)c4c3O)C[C@@H]12 | > 64 µg/mL |  |  |  | > 64 µg/mL | > 64 µg/mL | MIC [16]: > 64 µg/mL
13 | Cc1ccc2c(C)c3c(c4c2c1O[Si](C(C)(C)C)(C(C)(C)C)O4)C(=O)[C@]1(O)C(=O)C(C(N)=O)=C(O)[C@H](N)[C@@H]1C3 |  |  |  | 1 µg/mL (≈ 1.81 µM) | > 64 µg/mL | > 64 µg/mL | MIC [14]: 64 µg/mL (≈ 116 µM); MIC [15]: 8 µg/mL
14 | CC(=O)C1=C(O)[C@H](N)[C@@H]2Cc3c(c(O)c4c(O)c(C)ccc4c3C)C(=O)[C@]2(O)C1=O.O=C([O-])CC(O)(CC(=O)[O-])C(=O)[O-].[Na+].[Na+].[Na+] | 8 µg/mL |  | 4 µg/mL | 8 µg/mL | 64 µg/mL | 2 µg/mL | MIC [4]: 2 µg/mL
15 | CC(=O)Oc1c(C)ccc2c(C)c3c(c(O)c12)C(=O)[C@]1(O)C(=O)C(C(N)=O)=C(O)[C@H](N)[C@@H]1C3 | 16 µg/mL (≈ 35.2 µM) | 16 µg/mL (≈ 35.2 µM) |  |  |  |  | MIC [4]: 8 µg/mL (≈ 17.6 µM); MIC [9]: 1 µg/mL; Stabilty [10]: Stable; Stabilty [11]: Stable
16 | Cc1ccc2c(C)c3c(c(O)c2c1O)C(=O)[C@]1(O)C(=O)C(C(N)=O)=C(O)[C@H](N2C(=O)C=CC2=O)[C@@H]1C3 |  |  | > 64 µg/mL | 2 µg/mL (≈ 4.06 µM) | > 64 µg/mL | 64 µg/mL (≈ 130 µM) | MIC [14]: > 64 µg/mL; MIC [15]: 8 µg/mL
17 | Cc1ccc2c(C)c3c(c(O)c2c1O)C(=O)[C@]1(O)C(=O)C(C(N)=O)=C(O)[C@H](NC(=O)CN2CCN(C)CC2)[C@@H]1C3 | > 64 µg/mL | > 64 µg/mL | 32 µg/mL (≈ 57.9 µM) |  |  |  | MIC [4]: 54 µg/mL (≈ 97.7 µM); MIC [5]: 32 µg/mL
18 | CC(=O)N[C@H]1C(O)=C(C(N)=O)C(=O)[C@@]2(O)C(=O)c3c(c(C)c4ccc(C)c(O)c4c3O)C[C@@H]12 | 32 µg/mL (≈ 70.4 µM) |  |  | > 64 µg/mL | > 64 µg/mL | > 64 µg/mL | 
19 | Cc1ccc2c(C)c3c(c(O)c2c1O)C(=O)[C@]1(O)C(=O)C(C(N)=O)=C(O)[C@H](NC(=O)OCc2ccccc2)[C@@H]1C3 | 0.25 µg/mL (≈ 0.457 µM) |  |  | > 64 µg/mL | > 64 µg/mL | > 64 µg/mL | 
20 | COc1ccc(-c2cc(C)c(O)c3c(O)c4c(c(C)c23)C[C@H]2[C@@H](N)C(O)=C(C(N)=O)C(=O)[C@@]2(O)C4=O)cc1 |  |  |  | 1 µg/mL (≈ 1.93 µM) | > 64 µg/mL | > 64 µg/mL | MIC [14]: 32 µg/mL (≈ 61.7 µM); MIC [15]: 2 µg/mL
21 | Cc1cc(Cl)c2c(C)c3c(c(O)c2c1O)C(=O)[C@]1(O)C(=O)C(C(N)=O)=C(O)[C@H](N)[C@@H]1C3 |  | 4 µg/mL (≈ 8.95 µM) |  |  |  | 8 µg/mL (≈ 17.9 µM) | MIC [12]: 16 µg/mL (≈ 35.8 µM); MIC [13]: 8 µg/mL
22 | CCOC(=O)N[C@H]1C(O)=C(C(N)=O)C(=O)[C@@]2(O)C(=O)c3c(c(C)c4ccc(C)c(O)c4c3O)C[C@@H]12 |  |  | 64 µg/mL (≈ 132 µM) | 2 µg/mL (≈ 4.13 µM) | > 64 µg/mL | 16 µg/mL (≈ 33 µM) | 
23 | Cc1ccc2c(C)c3c(c(O)c2c1O)C(=O)[C@]1(O)C(=O)C(C(N)=O)=C(O)[C@H](NC(=O)CCN)[C@@H]1C3 | > 64 µg/mL | 64 µg/mL (≈ 132 µM) | 32 µg/mL (≈ 66.2 µM) |  |  |  | MIC [4]: 16 µg/mL (≈ 33.1 µM); MIC [5]: 8 µg/mL
24 | Cc1cc(C)c(-c2cc(C)c(O)c3c(O)c4c(c(C)c23)C[C@H]2[C@@H](N)C(O)=C(C(N)=O)C(=O)[C@@]2(O)C4=O)c(C)c1 |  |  |  | 0.5 µg/mL (≈ 0.942 µM) | > 64 µg/mL | 32 µg/mL (≈ 60.3 µM) | MIC [14]: > 64 µg/mL; MIC [15]: 8 µg/mL
